Measured values from patent US20260085315A1, “POLYNUCLEOTIDE COMPOSITIONS AND METHODS FOR TREATMENT OF CANCER” (APTAH BIO, INC., priority 2023, published 2026).
“And” between values parts separate entries of the source, which are not always exact repeats. Equal entries are not always repeated. “Also recorded” adds a separate entry of the source. d = 2'-deoxy (DNA); m = 2'-O-methyl

Columns and labels:
SH-SY5Y cell line = assay: MTT cytotoxicity assay on human cancer cell panel (Example 2); format: cell-based; conditions: 0.03-30 μM tested, 0.1% FBS
Method: Cell lines were maintained in growth medium with 10% of Fetal Bovine Serum (FBS) until the time of the experiments. Cells were sub-cultured by trypsinization and splitting the cell suspension into fresh flasks and supplementing with fresh culture medium. To perform the assay, the cells were trypsinized, neutralized with complete medium (10% FBS), centrifuged, counted with assistance of a hemocytometer, and plated with the respective media with 10% FBS. Cell lines were plated at a density of 1×10^4 cells per well, other than the SH-SY5Y cell line which was plated at a density of 2.5×10^4. […] After 24, 48, 72 and 96 hours of incubation, the effect of ASMO1 and controls on cytotoxicity of cells was determined by MTT assay.
(§1) Briefly, plates were taken out and 20 μl of 5 mg/ml of MTT 3-(4,5-dimethythiazol-2-yl)-2,5-diphenyl tetrazolium bromide solution was added to all the wells. […] The absorbance of each well was then read at 540 nm using Synergy HT microplate reader.
As shown in FIG. 13A-D, up to 72 hours ASMO1 APT20TTMG seems to have a cytotoxic effect from the concentration of […]. At 96 hours, the profile is a little different, and the concentration of 0.3 μM seems to start some effect. […] MTT assay was performed in 4 distinct times and graphs are represented as absorbance (540 nm). […]

PC-3 cell line = assay: as above; format: cell-based; conditions: 24, 48, 72 hours; 0.03-30 μM; 1% FBS
Method: Cell lines were maintained in growth medium with 10% of Fetal Bovine Serum (FBS) until the time of the experiments. Cells were sub-cultured by trypsinization and splitting the cell suspension into fresh flasks and supplementing with fresh culture medium. To perform the assay, the cells were trypsinized, neutralized with complete medium (10% FBS), centrifuged, counted with assistance of a hemocytometer, and plated with the respective media with 10% FBS. Cell lines were plated at a density of 1×10^4 cells per well, other than the SH-SY5Y cell line which was plated at a density of 2.5×10^4. The preparation of the different experimental groups was done with 0.1% FBS (U87MG, MCF-7, SH-SY5Y and 786-O) and 1% FBS (PC-3). The untreated cells were used as negative control (medium only). After 24, 48, 72 and 96 hours of incubation, the effect of ASMO1 and controls on cytotoxicity of cells was determined by MTT assay.
as §1
Cells were plated and treated with 7 different concentrations (0.03, 0.1, 0.3, 1, 3, 10 and 30 μM) of APT20TTMG with medium (1% FBS). MTT assay was performed in 3 distinct times and graphs are represented as absorbance (540 nm). […]

[1] = system: glioblastoma cell line U87-MG; assay: Internalization of FAM-conjugated compound by flow cytometry; format: cell-based, Human; conditions: 1 μM FAM conjugate
Method: The values obtained were: 1 hour (47.45±4.7%), 2 hours (45.45±3.9%), 4 hours (58±4.8%) and 6 hours (63.65±3.2%). Cells were exposed to the fluorochrome-conjugated compound FAM at a concentration of 1 μM, so that the quantification of intracellular fluorescence was performed at 1, 2, 4 and 6 hours using of the flow cytometry technique, through the acquisition of 10,000 gated events. Data of 2 independent experiments performed in two technical replicates.

U87-MG cell line = assay: Mitochondrial membrane potential; format: cell-based, Human; conditions: 0.25 and 0.5 μM
[2] = system: Human Glioblastoma Cancer (U-87MG) xenograft; assay: Histopathology of tumor samples with scoring; format: in vivo, athymic nude mice; parameters: key to Score: Grade: 1: I; 2: II; 3: III; 4: IV; key to Score: Connective tissue stroma: 1: Minimal Fibrosis; 2: Mild Fibrosis; 3: Moderate Fibrosis; 4: Prominent; key to Score: N:C ratio: 3: High; 2: Low to High; 1: Low; key to Score: Apoptosis / Score: Lipid content: 4: Minimal; 3: Mild; 2: Moderate; 1: Prominent
Description: (§2) The fixed tissues were processed for routine paraffin embedding followed by sectioning (3-6 micron). The sections were stained with hematoxylin and eosin. The prepared slides were examined under microscope by the study pathologist to record histopathological findings in tumor samples, related to capsule formation, cell type, connective tissue stroma, apoptosis, necrosis, lipid content, nucleus-to-cytoplasmic (N:C) ratio, nuclei mitotic figures, tumor grade, and level of differentiation. Each histopathological finding and tumor volume were assigned a score ranging from 1 to 4 (Table 7). The sum of these scores for each sample was used to infer the tumor aggressiveness.

[3] = system: Human Glioblastoma Cancer (U-87MG) xenograft; assay: Histopathology of tumor samples with scoring; format: in vivo, athymic nude mice; parameters: key: 4: Minimal; 3: Mild; 2: Moderate; 1: Prominent; conditions: individual animals; G3 APT20TTMG, G2 TMZ
Description: as §2

[4] = individual animals, G3 APT20TTMG, G2 TMZ

## APT20TTMG: engineered polynucleotide ASMO1, 24 nt, SEQ ID NO: 3 gtccactaacctttcaggccagcg; targeting moieties 5′-GTCCA-3′ and 5′-CG-3′, U1 snRNP recruiting moiety (GTCCACTAACCTTTCAGGCCAGCG; sugars from the 5' end m5 d14 m5, all phosphorothioate, methylation of C and T or U not given here)
SH-SY5Y cell line; 96 hours
  concentration that starts some effect (MTT): ≥ 0.3 µM
SH-SY5Y cell line; up to 72 hours
  concentration from which a cytotoxic effect is seen (MTT): ≥ 1 p M
PC-3 cell line
  cytotoxic or cytostatic effect (MTT): does not exert a cytotoxic or cytostatic effect
[1]; 1 hour
  internalization: 47.45±4.7%
[1]; 2 hours
  internalization: 45.45±3.9%
[1]; 4 hours
  internalization: 58±4.8%
[1]; 6 hours
  internalization: 63.65±3.2%
U87-MG cell line
  mitochondrial membrane potential labeling: reducing the labeling
[2]; G3 20 mg/kg i.v. vs G1 vehicle
  total score of histopathological findings and tumor volume: statistically lower scores than G1 group
[2]; G3 APT20TTMG 20 mg/kg i.v., G2 TMZ 5 mg/kg p.o.
  histopathological findings compared to G1 (vehicle control): less anaplastic features (lower grade) and cellular atypia, with fewer mitotic figures
[2]; individual animals
  Histopathological findings: Cell Type: Cell Type - Irregular/spindle type cells; also recorded: Cell Type - Polymorphic (i.e., Moderately differentiated
[2]; individual animals, G3
  Histopathological findings (whole sample): Only diffused necrotic area was observed.
  Score: Capsule: 1
[2]; individual animals, G3 APT20TTMG 20 mg/kg i.v. q3dx7, G2 TMZ 5 mg/kg p.o. qdx21
  Histopathological findings: Capsule: Capsule - Present; also recorded: Capsule - Absent
[2]; [4]
  Histopathological findings: Apoptosis: Apoptosis - Mild; also recorded: Apoptosis - Moderate
  Histopathological findings: Connective tissue stroma: Connective tissue stroma - Moderate Fibrosis; also recorded: Connective tissue stroma - Mild Fibrosis
  Histopathological findings: Grade: Grade- 2; also recorded: Grade- 1; also recorded: Grade- 3
  Histopathological findings: Lipid content: Lipid content - Moderate; also recorded: Lipid content - Minimal; also recorded: Lipid content - Mild
  Histopathological findings: Mitotic figures: Mitotic figures - Active (Few in number); also recorded: Mitotic figures - Active (Moderate in number); also recorded: Mitotic figures - Active (Large in number)
  Histopathological findings: N:C ratio: N:C ratio - Low to High (Intermediate)
  Histopathological findings: Necrosis: Necrosis - Prominent; also recorded: Necrosis - Moderate; also recorded: Necrosis - Mild
  Histopathological findings: Nuclei: Nuclei - Hyperchromatic
  Histopathological findings: level of differentiation: Moderately differentiated; also recorded: Well differentiated
  Score: Apoptosis: 3 (4×) and 2 (2×)
  Score: Connective tissue stroma: 3 (4×) and 2 (2×)
  Score: Grade: 2 (4×) and 1 and 3
  Score: Lipid content: 3 (3×) and 1 and 2 (2×)
  Score: N:C ratio: 1 (3×) and 2 (2×) and 3
  Score: Volume Tumor: 1 (<500) (2×) and 2 (500-1000) (3×) and 3 (1000-1500)
[3]
  Score: Mitotic figures: 2
  Score: Necrosis: 3 and 2
